Laboratory results published in publication PMC11721293 (JCI Insight, 2025).
pIC50: −log10 of the molar value. “And” between values parts separate entries of the source, which are not always exact repeats. Equal values may be shown once.

How the values were obtained:
[1] = tested on: SARS-CoV-2-nLUC; test: microbe, parasite or virus in culture; type: cell-based; conditions: GGTI vs DMSO; replicates
[2] = tested on: SARS-CoV-2-nLuc in cells overexpressing W106R mutant FTase; type: cell-based
[3] = tested on: omicron BA4.6 variant; test: Drug combination, omicron BA4.6 in VeroE6, qRT-PCR; type: cell-based, SARS-CoV-2; conditions: replicates
[4] = tested on: SARS-CoV-2-nLuc in cells overexpressing WT FTase; test: microbe, parasite or virus in culture; type: cell-based; conditions: for luciferase activity (relative): WT
[5] = tested on: SARS-CoV-2-nLUC; type: cell-based

Cc1nc[nH]c1CN1CCN(C(=O)N[C@@H](CC(C)C)C(=O)O)[C@@H](Cc2ccccc2)C1=O [GGTI2418]
signal relative to DMSO (sheet S7A) [1]: 90.3685 and 93.0121 and 91.627 and 90.3081

NC(=O)N1CCC(CC(=O)N2CCC([C@H]3c4ncc(Br)cc4CCc4cc(Cl)cc(Br)c43)CC2)CC1 [LNF, lonafarnib]
fold less effective in cells expressing mutant FTase vs WT [2]: ~2 fold
pIC50 ([2]; read-out: Mut IC50): 5.66
S3E viral level relative to LNF 0/ NRTV 0 ([3]; LNF 1/ NRTV 0): 69.1766 and 49.5863 and 50.5202
S3D viral level relative to LNF 0/ RDV 0 ([3]; LNF 1/ RDV 0): 32.8373 and 32.7511 and 35.1123
S3E viral level relative to LNF 0/ NRTV 0 ([3]; LNF 10/ NRTV 0): 2.995 and 4.305 and 4.101
S3D viral level relative to LNF 0/ RDV 0 ([3]; LNF 10/ RDV 0): 2.77 and 3.103 and 2.149
pIC50 ([4]; Severe acute respiratory syndrome coronavirus 2, Vero C1008, VeroE6 transfected with WT FNTB, 24 h): 5.96
luciferase activity (relative) ([4]; Log[LNF} mM (printed) 0.09691): 63.7112 and 63.9819 and 49.739 and 50.5313
luciferase activity (relative) ([4]; Log[LNF} mM (printed) 0.39794): 34.2371 and 34.2326 and 46.1621 and 47.4504
luciferase activity (relative) ([4]; Log[LNF} mM (printed) 0.69897): 15.3696 and 15.2721 and 16.4684 and 16.5029
luciferase activity (relative) ([4]; Log[LNF} mM (printed) 1): 6.188 and 5.457 and 5.008 and 4.944
luciferase activity (relative) ([4]; Log[LNF} mM (printed) -0.20412): 54.7411 and 54.7908 and 56.706 and 57.079
luciferase activity (relative) ([4]; Log[LNF} mM (printed) -0.50515): 62.6012 and 61.9491 and 68.0615 and 68.2295
luciferase activity (relative) ([4]; Log[LNF} mM (printed) -0.80618): 99.8257 and 98.9 and 84.2901 and 84.2134
luciferase activity (relative) ([4]; Log[LNF} mM (printed) -1.10721): 97.017 and 96.4383 and 93.6225 and 92.4394

CC(C)(C)[C@H](NC(=O)C(F)(F)F)C(=O)N1C[C@H]2[C@@H]([C@H]1C(=O)N[C@H](C#N)C[C@@H]1CCNC1=O)C2(C)C [NRTV, nirmatrelvir]
S3E viral level relative to LNF 0/ NRTV 0 ([3]; LNF 0/ NRTV 0.5): 47.9329 and 37.1942 and 53.3183
S3E viral level relative to LNF 0/ NRTV 0 ([3]; LNF 0/ NRTV 5): 1.354 and 1.072 and 1.497

CN(C)C(=O)COC(=O)Cc1ccc(OC(=O)c2ccc(NC(=N)N)cc2)cc1 [camostat]
infection signal (sheet S4F) [5]: 74.3368 and 81.9164 and 86.4071 and 85.3028 and 90.7155 and 94.6132 and 81.833 and 79.6415
